Consider eight compounds from ChEMBL document CHEMBL5316286, “Inhibition of the Ubiquitin Transfer Cascade by a Peptidomimetic Foldamer Mimicking the E2 N-Terminal Helix” (J Med Chem, 2023).

A short description of data set [1]: Stability of compound in ammonium bicarbonate buffer at pH 7.8 at 0.1 mg/ml incubated for 24 hrs by HPLC/MS analysis. Type of data set: physicochemical. Particulars: pH 7.8, 24 h.
Data set [2] can be described thus: Stability of compound in human serum at 1 mg incubated for 24 hrs by HPLC analysis. Type of data set: ADME, cell-free.
Data set [3] deals with T1, E3 ubiquitin-protein ligase CHIP (Homo sapiens) (UniProt Q9UNE7).
T1 sequence (whole entry): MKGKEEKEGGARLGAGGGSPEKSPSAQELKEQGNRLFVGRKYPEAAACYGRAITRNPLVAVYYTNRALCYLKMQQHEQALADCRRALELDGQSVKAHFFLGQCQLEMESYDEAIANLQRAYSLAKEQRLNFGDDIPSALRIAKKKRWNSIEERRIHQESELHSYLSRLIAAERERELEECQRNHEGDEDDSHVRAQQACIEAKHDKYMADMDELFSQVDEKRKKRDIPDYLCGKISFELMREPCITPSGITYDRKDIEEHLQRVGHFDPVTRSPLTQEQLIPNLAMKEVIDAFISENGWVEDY
The data set can be described thus: Inhibition of N-terminal Flag-tagged full-length U-box E3 CHIP (unknown origin) self-ubiquitination expressed in Escherichia coli BL21 (DE3) cells assessed as inhibition of Uba1-UbcH5B-CHIP cascade at upto 50 uM preincubated for 30 mins followed by ubiquitin addition measured after 1 hr by Western blot analysis. The note with it: time 90.0 min. In general terms: In western blotting, separated proteins are transferred to a membrane and probed.

The target in data set [4] is T2, Ubiquitin-like modifier-activating enzyme 1 (Homo sapiens) (UniProt P22314).
T2 sequence (whole entry): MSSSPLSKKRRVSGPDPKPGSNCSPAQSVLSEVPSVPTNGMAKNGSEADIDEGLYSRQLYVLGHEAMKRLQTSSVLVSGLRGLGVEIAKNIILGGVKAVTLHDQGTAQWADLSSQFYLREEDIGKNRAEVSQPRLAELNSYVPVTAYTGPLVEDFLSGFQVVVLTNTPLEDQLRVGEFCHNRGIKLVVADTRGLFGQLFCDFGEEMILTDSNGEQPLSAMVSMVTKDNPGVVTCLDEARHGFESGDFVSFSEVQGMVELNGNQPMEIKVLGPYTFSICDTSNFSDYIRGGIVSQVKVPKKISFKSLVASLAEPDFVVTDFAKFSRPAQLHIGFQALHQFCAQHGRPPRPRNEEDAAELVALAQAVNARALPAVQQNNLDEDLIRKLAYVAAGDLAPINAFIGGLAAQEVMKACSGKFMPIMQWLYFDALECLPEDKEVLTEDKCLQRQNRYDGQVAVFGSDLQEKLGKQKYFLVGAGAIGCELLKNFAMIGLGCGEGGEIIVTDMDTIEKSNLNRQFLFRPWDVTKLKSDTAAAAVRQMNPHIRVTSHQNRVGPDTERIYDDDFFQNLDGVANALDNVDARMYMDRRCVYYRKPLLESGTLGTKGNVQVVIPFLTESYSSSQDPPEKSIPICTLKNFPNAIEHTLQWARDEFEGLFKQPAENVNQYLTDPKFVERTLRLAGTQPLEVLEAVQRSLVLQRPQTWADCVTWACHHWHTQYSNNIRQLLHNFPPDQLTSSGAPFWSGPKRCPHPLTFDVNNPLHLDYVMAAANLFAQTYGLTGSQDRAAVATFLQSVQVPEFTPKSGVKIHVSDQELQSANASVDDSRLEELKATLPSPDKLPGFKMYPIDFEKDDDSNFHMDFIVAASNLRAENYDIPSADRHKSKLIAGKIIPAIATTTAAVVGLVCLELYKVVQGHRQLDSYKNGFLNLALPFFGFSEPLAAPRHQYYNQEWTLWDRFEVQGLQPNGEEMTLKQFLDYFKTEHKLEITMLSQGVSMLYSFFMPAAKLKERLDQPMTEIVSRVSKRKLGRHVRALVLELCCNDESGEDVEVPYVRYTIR
The data set can be described thus: Binding affinity to His-tagged Uba1 (unknown origin)-coated Ni-NTA beads assessed as measuring green fluorescence at 10 uM incubated for 30 mins by laser scanning microscopy.

The target of data set [5] is T1, E3 ubiquitin-protein ligase CHIP (Homo sapiens). Nature of the data set: Inhibition of N-terminal Flag-tagged full-length U-box E3 CHIP (unknown origin) self-ubiquitination expressed in Escherichia coli BL21 (DE3) cells assessed as decrease in polyubiquitination at 50 uM preincubated for 30 mins followed by ubiquitin addition measured after 1 hr by Western blot analysis. Particulars: time 90.0 min.

For data set [6] the target is unchanged. Nature of the data set: Inhibition of N-terminal Flag-tagged full-length U-box E3 CHIP (unknown origin)-mediated CDK4 monoubiquitination expressed in Escherichia coli BL21 (DE3) cells upto 50 uM preincubated for 30 mins followed by ubiquitin addition measured after 1 hr by Western blot analysis. Particulars: time 90.0 min.
The target is the same in data set [7]. Nature of the data set: Inhibition of N-terminal Flag-tagged full-length U-box E3 CHIP (unknown origin) self-ubiquitination expressed in Escherichia coli BL21 (DE3) cells assessed as decrease in polyubiquitination at upto 50 uM preincubated for 30 mins followed by ubiquitin addition measured after 1 hr by Western blot analysis. The note with it: time 90.0 min.

For data set [8] the target is unchanged. The data set can be described thus: Inhibition of CHIP-mediated CDK4 ubiquitination in HEK293T cells upto 50 uM preincubated for 14 hrs followed by MG132 addition measured after 12 hrs by Western blot analysis. Type of data set: cell-based. Particulars: time 26.0 hrs.
Data set [9] shares this target. The data set can be described thus: Inhibition of CHIP (unknown origin) self-ubiquitination upto 50 uM in presence of ubiquitin-preloaded UbcH5B by Western blot analysis.
Data set [10] deals with Cyclin-dependent kinase 4 (Homo sapiens) (UniProt P11802). Nature of the data set: Inhibition of CDK4 ubiquitination in HEK293 cells overexpressing CHIP upto 50 uM by Western blot analysis. Type of data set: cell-based.
For data set [11], the species on record is Homo sapiens. The data set can be described thus: Disruption of Uba1/UbcH5B (unknown origin) interaction assessed as inhibition of UbcH5B-ubiquitin conjugate formation at 50 uM preincubated for 30 mins followed by ubiquitin addition measured after 30 mins by Western blot analysis.
Data set [12] in a line: Aggregation propensity of the compound in D2O assessed as signal shift at 1 mM measured for 24 hrs by 1H-NMR analysis. Format: physicochemical. The note with it: 1000 µM.
Data set [13] in a line: Aggregation propensity of the compound in D2O assessed as signal shift at 1 mM measured after 10 days by 1H-NMR analysis. The note with it: 240 h, 1000 µM, time 10 day. Format: physicochemical.
The subject of data set [14] is Erythrocyte. The data set can be described thus: Hemolytic activity in human RBC assessed as cell membrane disruption upto 400 uM incubated for 1 hr by microplate reader analysis. Format: toxicity, cell-based.
The test system of data set [15] is HEK293. Nature of the data set: Cytotoxicity against HEK293 cells assessed as cell membrane disruption upto 100 uM incubated for 24 hrs by DAPI/PI staining based confocal microscopy. Particulars: human, hek293, 24 h. Type of data set: toxicity.

Molecules are shown by their SMILES. Activity calls are given as the source filed them. The rule behind the calls is not given here. *1 amine or outer side, *2 acyl side, *3 side chain or, on linkers, in order; H or OH if unused. Where a SMILES comes first, the peptide text is derived from it. [ ]: non-standard residue; d: D form. X1 = N=C(N)CCCC[C@H](N[*:1])C(=O)[*:2]

Cyclin-dependent kinase 4 (Homo sapiens), sequence (P11802 whole entry): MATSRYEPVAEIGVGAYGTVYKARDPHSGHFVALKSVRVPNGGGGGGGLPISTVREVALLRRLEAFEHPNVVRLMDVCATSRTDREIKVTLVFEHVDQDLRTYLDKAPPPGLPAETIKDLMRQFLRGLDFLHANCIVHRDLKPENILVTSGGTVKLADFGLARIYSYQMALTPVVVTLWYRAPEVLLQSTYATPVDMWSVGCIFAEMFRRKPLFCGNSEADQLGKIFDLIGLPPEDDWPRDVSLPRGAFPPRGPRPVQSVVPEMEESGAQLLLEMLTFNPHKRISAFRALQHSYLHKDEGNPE

With `CC[C@H](C)[C@H](NC(=O)[C@H](CCC(=O)O)NC(=O)[C@H](CCCCN)NC(=O)[C@H](CCSC)NC(=O)[C@@H](NC(=O)[C@H](CCCNC(=N)N)NC(=O)[C@H](CCCCN)NC(=O)[C@H](C)NC(=O)[C@H](CCCCC(=N)N)NC(=O)[C@H](CO)NC(=O)[C@H](CO)NC(C)=O)[C@@H](C)CC)C(=O)N[C@@H](CCC(N)=O)C(=O)N[C@@H](C)C(=O)N[C@H](C(=O)N[C@@H](CCCCN)C(=O)N[C@@H](CC(=O)O)C(N)=O)C(C)C` (Ac-SS[X1]AKRIMKEIQAVKD-NH2), the Stability entry in data set [1] and in [2] was “Stable” each time.
As to `COc1ccc(S(=O)(=O)N(CC(=O)N[C@@H](CCCCN)CN(CC(=O)N[C@@H](CCCCN)CN(CC(=O)N[C@@H](CC(C)C)CN(CC(=O)N[C@@H](CCCCN)CN(CC(=O)N[C@@H](CC(C)C)CN(CC(=O)N[C@@H](CCCCN)CN(CC(=O)N[C@@H](CC(C)C)CN(CC(N)=O)S(=O)(=O)CCN)S(C)(=O)=O)S(=O)(=O)CC(C)C)S(C)(=O)=O)S(=O)(=O)CCN)S(=O)(=O)CCN)S(C)(=O)=O)C[C@H](CCCCN)NC(C)=O)cc1`, the inhibition result in data set [3] is “inactive”. In addition, the outcome in [4] was inactive.
As to `CC(=O)N[C@H](CO)CN(CC(=O)N[C@H](C)CN(CC(=O)N[C@H](CCCCN)CN(CC(=O)N[C@H](CC(C)C)CN(CC(=O)N[C@H](CCCCN)CN(CC(=O)N[C@H](CC(C)C)CN(CC(=O)N[C@H](CCC(=O)O)CN(CC(=O)N[C@H](CCCCN)CN(CC(N)=O)S(=O)(=O)CCN)S(=O)(=O)CC(C)C)S(=O)(=O)CCN)S(C)(=O)=O)S(=O)(=O)CCN)S(=O)(=O)CCN)S(=O)(=O)CC(C)C)S(=O)(=O)CC(C)C`, the inhibition result in data set [3] is “inactive”.
Regarding `COc1ccc(S(=O)(=O)N(CC(=O)N[C@H](CCCCN)CN(CC(=O)N[C@H](CCCCN)CN(CC(=O)N[C@H](CC(C)C)CN(CC(=O)N[C@H](CCCCN)CN(CC(=O)N[C@@H]2CCCCNC(=O)c3ccc(cc3)C(=O)NCCCC[C@H](CN(CC(N)=O)S(C)(=O)=O)NC(=O)CN(S(C)(=O)=O)C[C@@H](CCCCN)NC(=O)CN(S(C)(=O)=O)C2)S(C)(=O)=O)S(=O)(=O)CCN)S(=O)(=O)CCN)S(C)(=O)=O)C[C@@H](CCCCN)NC(C)=O)cc1`, the inhibition entry in data set [5] was “Active”. For the same compound, the inhibition result in data set [6] was “inactive”.
Take `CC(=O)N[C@H](CO)CN(CC(=O)N[C@H](C)CN(CC(=O)N[C@H](CCCCN)CN(CC(=O)N[C@@H]1CCCCNC(=O)c2ccc(cc2)C(=O)NCCCC[C@H](CN(CC(=O)N[C@H](CCC(=O)O)CN(CC(=O)N[C@H](CCCCN)CN(CC(N)=O)S(=O)(=O)CCN)S(=O)(=O)CC(C)C)S(C)(=O)=O)NC(=O)CN(S(C)(=O)=O)C[C@@H](CCCCN)NC(=O)CN(S(C)(=O)=O)C1)S(=O)(=O)CCN)S(=O)(=O)CC(C)C)S(=O)(=O)CC(C)C`: the inhibition result in data set [7] and in [6] was “inactive” each time.
Regarding `CC(=O)N[C@H](CO)CN(CC(=O)N[C@H](C)CN(CC(=O)N[C@H](CCCCN)CN(CC(=O)N[C@H](CC(C)C)CN(CC(=O)N[C@H](CCCCN)CN(CC(=O)N[C@@H]1CCCCNC(=O)c2ccc(cc2)C(=O)NCCCC[C@H](CN(CC(N)=O)S(C)(=O)=O)NC(=O)CN(S(=O)(=O)CC(C)C)C[C@@H](CCC(=O)O)NC(=O)CN(S(C)(=O)=O)C1)S(C)(=O)=O)S(=O)(=O)CCN)S(=O)(=O)CCN)S(=O)(=O)CC(C)C)S(=O)(=O)CC(C)C`, the inhibition result in data set [7] and in data set [6] was “inactive” in each case.
For `COc1ccc(S(=O)(=O)N(CC(=O)N[C@@H]2CCCCNC(=O)c3ccc(cc3)C(=O)NCCCC[C@H](CN(CC(=O)N[C@H](CCCCN)CN(CC(=O)N[C@H](CC(C)C)CN(CC(=O)N[C@H](CCCCN)CN(CC(=O)N[C@H](CC(C)C)CN(CC(N)=O)S(=O)(=O)CCN)S(C)(=O)=O)S(=O)(=O)CC(C)C)S(C)(=O)=O)S(C)(=O)=O)NC(=O)CN(S(=O)(=O)CCN)C[C@@H](CCCCN)NC(=O)CN(S(C)(=O)=O)C2)C[C@@H](CCCCN)NC(C)=O)cc1`, the inhibition entry in data set [5], in data set [6], in data set [8], in data set [10] and in data set [11] was “Active” in each case. Also, the inhibition result in data set [9] was “inactive”. In addition, the Activity result is listed as “Not Active” in data set [12], “Active” in [13], “Non-Toxic” in [14] and “Non-Toxic” in data set [15]. Further, the Stability entry in [1] and in data set [2] was “Stable” throughout.
As for `CC(=O)N[C@H](CO)CN(CC(=O)N[C@@H]1CCCCNC(=O)c2ccc(cc2)C(=O)NCCCC[C@H](CN(CC(=O)N[C@H](CCCCN)CN(CC(=O)N[C@H](CC(C)C)CN(CC(=O)N[C@H](CCC(=O)O)CN(CC(=O)N[C@H](CCCCN)CN(CC(N)=O)S(=O)(=O)CCN)S(=O)(=O)CC(C)C)S(=O)(=O)CCN)S(C)(=O)=O)S(C)(=O)=O)NC(=O)CN(S(=O)(=O)CCN)C[C@@H](CCCCN)NC(=O)CN(S(C)(=O)=O)C1)S(=O)(=O)CC(C)C`, the inhibition entry in [7] and in [6] was “inactive” throughout.
